Test systems include NCI-H226; EKVX; UO-31; M14; HL-60; NCI-H23; PC-3; HT-29; RXF 393; SK-MEL-2; SR; MDA-MB-435; SK-MEL-5; TK-10; SF-295; SK-MEL-28; A549; A498; ACHN; MCF7.
What all share (experiment): inhibition of tumour cell growth, NCI panel, 48 h

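These data come from cells grown in 96-well plates and exposed to compound for 48 hours at five concentrations. Abbreviation: GI50, concentration required for 50% inhibition of growth.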 Calls of active or inactive are those of the source. Cut-off read from the data, not from the text of the source: active = GI50 up to about 1.1 µM and inactive = higher.

As to `COC1=CC(=O)c2c(c(-c3nc(C)cs3)cn2C)C1=O`, the GI50 was 16700 nM (inactive) with NCI-H226; 8650 nM (inactive) in the assay on EKVX; 4530 nM (inactive) in the assay on UO-31; 2130 nM (inactive) in the assay on M14; 1460 nM (inactive) in the assay with HL-60; 2250 nM (inactive) with NCI-H23. The GI50 with PC-3 is 5960 nM (inactive); with HT-29, 4980 nM (inactive); in the assay on RXF 393, 20400 nM (inactive); in the assay on SK-MEL-2 it was 3030 nM (inactive); in the assay on SR it was 4950 nM (inactive); in the assay with MDA-MB-435, 409 nM (active). Further, the GI50 was 1200 nM (inactive) in the assay with SK-MEL-5; 10800 nM (inactive) in the assay with TK-10; 2880 nM (inactive) with SF-295; 3720 nM (inactive) with SK-MEL-28; 3320 nM (inactive) in the assay with A549; 5820 nM (inactive) in the assay on A498. In addition, the values for the GI50 with ACHN and with MCF7 were 4730 nM (inactive) and 2620 nM (inactive), respectively.
Turning to `CC[C@H]1C=CCC[C@@]2(C[C@@H]3CC[C@@H]4[C@H](C(=O)OCCCCCCCCCCCCCCCC(=O)O)[C@]5(CCC[C@@H](C)O5)NC(=[N+]34)N2)O1` [CRAMBESCIDIN 657], the GI50 was 273 nM (active) in the assay on NCI-H226; 1390 nM (inactive) in the assay on EKVX; 125 nM (active) in the assay with UO-31; 100 nM (active) in the assay on M14; 151 nM (active) in the assay on HL-60; 488 nM (active) in the assay with NCI-H23. The GI50 with PC-3 was 100 nM (active); in the assay on HT-29 it was 116 nM (active); with RXF 393, 216 nM (active); in the assay on SK-MEL-2, 127 nM (active); in the assay on SR, 52.1 nM (active); in the assay on MDA-MB-435, 141 nM (active). Further, the GI50 in the assay on SK-MEL-5 is 104 nM (active); in the assay with TK-10, 367 nM (active); with SF-295, 163 nM (active); in the assay on SK-MEL-28, 743 nM (active); with A549, 164 nM (active); with A498, 306 nM (active). In addition, the values for the GI50 with ACHN and with MCF7 were 175 nM (active) and 214 nM (active), respectively.

(Values after ChEMBL document CHEMBL1201862, “PubChem BioAssay data set” (2004).)
